In ChEMBL document CHEMBL5523716, “Discovery of novel EGFR-PROTACs capable of degradation of multiple EGFR-mutated proteins” (Eur J Med Chem, 2024):

Columns and labels:
A549 = assay: Antiproliferative activity against human A549 cells harboring EGFR wild type assessed as inhibition of cell growth incubated for 48 to 72 hrs by CCK-8 assay; format: functional, cell-based
[1] = biological target: von Hippel-Lindau disease tumor suppressor/Epidermal growth factor receptor (Homo sapiens, UniProt P00533+P40337); assay: PROTAC activity at VHL/EGFR Del19 mutant in human HCC827 cells assessed as induction of EGFR degradation incubated for 72 hrs by Western blot analysis; format: cell-based
von Hippel-Lindau disease tumor suppressor/Epidermal growth factor receptor (Homo sapiens, UniProt P00533+P40337), sequence (P00533 whole entry, looked up, stated change not applied): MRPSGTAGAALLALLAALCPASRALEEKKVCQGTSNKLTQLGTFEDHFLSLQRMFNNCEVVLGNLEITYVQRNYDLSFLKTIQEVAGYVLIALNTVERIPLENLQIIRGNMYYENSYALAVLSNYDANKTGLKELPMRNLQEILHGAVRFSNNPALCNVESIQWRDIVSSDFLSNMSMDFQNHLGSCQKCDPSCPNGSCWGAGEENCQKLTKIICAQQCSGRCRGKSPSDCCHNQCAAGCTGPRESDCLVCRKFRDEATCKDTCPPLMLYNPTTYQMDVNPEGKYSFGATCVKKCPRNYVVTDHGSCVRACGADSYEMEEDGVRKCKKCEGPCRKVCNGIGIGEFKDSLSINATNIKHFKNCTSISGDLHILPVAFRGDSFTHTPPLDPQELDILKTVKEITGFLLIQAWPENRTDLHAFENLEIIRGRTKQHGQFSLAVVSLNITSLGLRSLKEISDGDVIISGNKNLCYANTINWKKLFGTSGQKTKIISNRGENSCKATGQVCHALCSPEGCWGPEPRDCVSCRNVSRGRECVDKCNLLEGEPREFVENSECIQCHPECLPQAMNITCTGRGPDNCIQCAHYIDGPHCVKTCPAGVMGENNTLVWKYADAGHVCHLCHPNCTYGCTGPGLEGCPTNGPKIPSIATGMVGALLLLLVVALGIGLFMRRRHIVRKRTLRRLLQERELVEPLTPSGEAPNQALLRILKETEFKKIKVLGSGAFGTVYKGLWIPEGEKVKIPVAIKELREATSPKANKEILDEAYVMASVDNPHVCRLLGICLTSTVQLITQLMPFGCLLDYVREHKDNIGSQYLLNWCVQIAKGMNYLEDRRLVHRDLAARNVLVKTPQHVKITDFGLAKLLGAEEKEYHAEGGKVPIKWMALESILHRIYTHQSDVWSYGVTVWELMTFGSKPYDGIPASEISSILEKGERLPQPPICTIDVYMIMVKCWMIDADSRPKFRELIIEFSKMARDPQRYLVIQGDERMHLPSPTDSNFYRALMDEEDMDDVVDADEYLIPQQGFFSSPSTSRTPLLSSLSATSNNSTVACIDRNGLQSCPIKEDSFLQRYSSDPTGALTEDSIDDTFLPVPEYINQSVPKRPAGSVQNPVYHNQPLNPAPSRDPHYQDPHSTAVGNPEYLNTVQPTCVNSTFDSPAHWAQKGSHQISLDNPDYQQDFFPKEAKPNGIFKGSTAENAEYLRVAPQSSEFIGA
von Hippel-Lindau disease tumor suppressor/Epidermal growth factor receptor (Homo sapiens, UniProt P00533+P40337), sequence (P40337 whole entry, looked up, stated change not applied): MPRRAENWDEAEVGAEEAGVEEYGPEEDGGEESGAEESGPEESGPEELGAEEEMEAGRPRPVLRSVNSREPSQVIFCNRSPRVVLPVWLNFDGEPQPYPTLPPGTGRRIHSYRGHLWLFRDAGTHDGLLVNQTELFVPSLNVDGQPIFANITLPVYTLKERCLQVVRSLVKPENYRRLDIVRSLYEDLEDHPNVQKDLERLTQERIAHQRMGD

[2] = Antiproliferative activity against human H1975-TM cells harboring EGFR L858R/T790M/C797S mutant assessed as inhibition of cell growth incubated for 48 to 72 hrs by CCK-8 assay; format: functional, cell-based
[3] = tested on: von Hippel-Lindau disease tumor suppressor/Epidermal growth factor receptor (Homo sapiens), P00533+P40337 [L858R,T790M]; assay: PROTAC activity at VHL/EGFR L858R/T790M mutant in human NCI-H1975 cells assessed as maximal EGFR degradation at 0.15 to 10 uM incubated for 72 hrs by Western blot analysis relative to control; format: cell-based; conditions: dose 0.15-10 µM
von Hippel-Lindau disease tumor suppressor/Epidermal growth factor receptor (Homo sapiens), P00533+P40337 [L858R,T790M], sequence (P00533 whole entry T790M/L858R): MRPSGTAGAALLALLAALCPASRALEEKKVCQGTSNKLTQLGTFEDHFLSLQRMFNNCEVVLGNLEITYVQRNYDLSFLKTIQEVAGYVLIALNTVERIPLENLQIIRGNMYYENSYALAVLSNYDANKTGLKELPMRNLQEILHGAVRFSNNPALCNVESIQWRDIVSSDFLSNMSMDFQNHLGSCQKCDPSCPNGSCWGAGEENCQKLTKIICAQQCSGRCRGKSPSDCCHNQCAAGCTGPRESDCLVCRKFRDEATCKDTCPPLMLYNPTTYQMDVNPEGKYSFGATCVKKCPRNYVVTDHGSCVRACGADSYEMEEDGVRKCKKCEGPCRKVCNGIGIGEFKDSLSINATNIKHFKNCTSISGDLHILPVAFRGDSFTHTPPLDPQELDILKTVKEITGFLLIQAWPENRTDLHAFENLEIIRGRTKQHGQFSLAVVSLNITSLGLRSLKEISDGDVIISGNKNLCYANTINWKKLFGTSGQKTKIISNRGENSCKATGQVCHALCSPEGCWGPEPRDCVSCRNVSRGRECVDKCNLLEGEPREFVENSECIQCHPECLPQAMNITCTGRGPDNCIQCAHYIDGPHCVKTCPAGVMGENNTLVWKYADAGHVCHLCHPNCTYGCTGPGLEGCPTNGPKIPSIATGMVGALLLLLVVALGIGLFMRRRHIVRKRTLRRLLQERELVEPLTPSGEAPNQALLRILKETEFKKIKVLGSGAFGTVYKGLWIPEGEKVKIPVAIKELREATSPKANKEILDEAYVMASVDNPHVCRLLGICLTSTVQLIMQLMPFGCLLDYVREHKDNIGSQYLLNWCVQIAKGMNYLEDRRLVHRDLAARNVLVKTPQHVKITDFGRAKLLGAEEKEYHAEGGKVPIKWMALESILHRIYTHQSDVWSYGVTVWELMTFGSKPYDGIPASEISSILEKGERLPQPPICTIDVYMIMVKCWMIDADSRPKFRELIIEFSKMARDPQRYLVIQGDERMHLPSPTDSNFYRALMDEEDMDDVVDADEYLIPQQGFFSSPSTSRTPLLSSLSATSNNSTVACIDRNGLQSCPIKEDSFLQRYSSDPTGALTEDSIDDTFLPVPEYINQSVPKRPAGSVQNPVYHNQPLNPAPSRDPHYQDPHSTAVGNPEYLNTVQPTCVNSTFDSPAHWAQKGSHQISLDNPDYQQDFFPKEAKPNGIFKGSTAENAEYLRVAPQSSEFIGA
von Hippel-Lindau disease tumor suppressor/Epidermal growth factor receptor (Homo sapiens), P00533+P40337 [L858R,T790M], sequence (P40337 whole entry partner): as the sequence (P40337 whole entry, looked up, stated change not applied) above

A-431 = assay: Antiproliferative activity against human A-431 cells harboring EGFR wild type assessed as inhibition of cell growth incubated for 48 to 72 hrs by CCK-8 assay; format: functional, cell-based
NCI-H1975 = assay: Antiproliferative activity against human NCI-H1975 cells harboring EGFR L858R/T790M double mutant assessed as inhibition of cell growth incubated for 48 to 72 hrs by CCK-8 assay; format: functional, cell-based
[4] = tested on: von Hippel-Lindau disease tumor suppressor/Epidermal growth factor receptor (Homo sapiens), P00533+P40337 [UNDEFINED MUTATION]; assay: PROTAC activity at VHL/EGFR Del19 mutant in human HCC827 cells assessed as maximal EGFR degradation at 3.125 to 200 nM incubated for 72 hrs by Western blot analysis relative to control; format: cell-based; conditions: dose 3.125-200 nM
von Hippel-Lindau disease tumor suppressor/Epidermal growth factor receptor (Homo sapiens), P00533+P40337 [UNDEFINED MUTATION], sequence (P00533 whole entry, looked up, stated change not applied): as the sequence (P00533 whole entry, looked up, stated change not applied) above
von Hippel-Lindau disease tumor suppressor/Epidermal growth factor receptor (Homo sapiens), P00533+P40337 [UNDEFINED MUTATION], sequence (P40337 whole entry, looked up, stated change not applied): as the sequence (P40337 whole entry, looked up, stated change not applied) above

HCC827 = assay: Antiproliferative activity against human HCC827 cells harboring EGFR Del19 mutant assessed as inhibition of cell growth incubated for 48 to 72 hrs by CCK-8 assay; format: functional, cell-based
[5] = biological target: von Hippel-Lindau disease tumor suppressor/Epidermal growth factor receptor (Homo sapiens, UniProt P00533+P40337, T790M/L858R); assay: PROTAC activity at VHL/EGFR L858R/T790M mutant in human NCI-H1975 cells assessed as induction of EGFR degradation incubated for 72 hrs by Western blot analysis; format: cell-based

## CCN(CC)C/C=C/C(=O)Nc1cc2c(Nc3ccc(F)c(Cl)c3)ncnc2cc1OCc1cn(CCCCCCCCCCC(=O)N[C@H](C(=O)N2C[C@H](O)C[C@H]2C(=O)NCc2ccc(-c3scnc3C)cc2)C(C)(C)C)nn1
A549
  IC50: > 20000 nM
[1]
  DC50: 28.7 nM
[2]
  IC50: > 20000 nM
[3]
  Emax: 93%
A-431
  IC50: > 20000 nM
NCI-H1975
  IC50: 380 nM
[4]
  Emax: 99%
HCC827
  IC50: 15 nM
[5]
  DC50: 380 nM
